This is an account of results in patent US20240417435A1, “DEFENSIN-DERIVED PEPTIDE WITH ANTIBACTERIAL ACTIVITY ALSO AGAINST MULTI-ANTIBIOTIC-RESISTANT BACTERIA” (priority 2021, published 2024).

Converted amounts (≈) assume the structure as drawn. Where a SMILES comes first, the peptide text is derived from it.

One experiment has as its system ESBL strains of E. coli. The experiment is described as follows: In vitro time-kill kinetics assay. The note with it: peptide at MIC, after 2 hours' incubation, throughout observation period. It counts as cell-based, Escherichia coli. How it is done: (§1) The MIC is indicated by the concentration interval, which comprise the upper growth limit and the first concentration which could not support visible bacterial growth after incubation. The MBC was defined as the lowest concentration at which no viable colonies were observed. The peptide concentrations were 128.0, 64.0, 32.0, 16.0, 8.0, 4.0, 2.0 and 1 μM. For the time-kill studies against the ATCC and MDR strains, the bacteria were cultured in BHI broth until the late log growth phase at 37° C. The bacterial suspensions, containing about 10^6 CFU/ml (adjusted by the spectrophotometer to OD600 nm), were diluted 1:100 in PBS1× and then incubated at 37° C. with or without the peptide, selected at concentrations corresponding to 1, 2 and 4×MIC (as determined above). At baseline and 1, 2, 3 and 5 hours after incubation, a portion of each sample was harvested, diluted in series in PBS1× and seeded on BHI agar. The plates were incubated for […] at 37° C., and the viable bacteria count was conducted by the CFU method. All the data were expressed as mean±SD of three independent experiments.

Experiment [1] concerns E. coli ATCC 13762 (ATCC reference strain). The experiment is described as follows: In vitro time-kill kinetics assay. The experiment is classed as cell-based, Escherichia coli. The note with it: peptide at MIC, after 2 hours' incubation. How it is done:
as §1

Another experiment concerns MRSA strain 3. It counts as cell-based, Staphylococcus aureus. How it is done: (§2) The antimicrobial activity of peptide γ2 was evaluated versus Pseudomonas aeruginosa ATCC 27853, Escherichia coli ATCC 13762 and Staphylococcus aureus ATCC 6538, and versus multidrug-resistant (MDR) clinical isolates of Methicillin-Resistant Staphylococcus aureus (MRSA), extended-spectrum β-lactamase (ESBL)-producing E. coli, P. aeruginosa and Acinetobacter baumannii complex. The isolates were identified by mass spectrometry using the MALDI (matrix-assisted laser desorption/ionisation) mass spectrometer and the biochemical phenotyping method in a VITEKR 2 bioMérieux system (bioMérieux Italia S.p.a., Bagno a Ripoli, Florence, Italy), according to the manufacturer's instructions. The antibiotic susceptibility profile was evaluated with the VITEKR 2 bioMérieux System. The microorganisms were cultured in broth and agar at 37° C. The media used were BD Brain Heart Infusion broth (BHI) (BD, Franklin Lakes, NJ, USA) and BHI agar (OXOID, Basingstoke, Hampshire, UK), BD Trypticase Soy agar with 5% sheep's blood and MacConkey agar (OXOID, Basingstoke, Hampshire, UK). The isolates were stored frozen at −80° C. in BHI broth supplemented with 10% (v/v) glycerol (Carlo Erba Reagents, Milan, Italy) until use, and the work cultures were activated in the respective broths at 37° C. for 15-18 h.
(§3) Assays of the antibacterial activity of peptide γ2, in both reduced and oxidised form, were conducted against P. aeruginosa ATCC 27853, E. coli ATCC 13762, S. aureus ATCC 6538 and MDR clinical isolates. The strains were cultured under aerobic conditions in BHI broth at 37° C. and incubated with peptide γ2 for 2 hours at 37° C. Various concentrations of peptide were used, ranging from 1 μM to 128 μM. Each test was conducted in triplicate with three independent cultures. The minimum inhibitory concentration (MIC) and the minimum bactericidal concentration (MBC) of the peptide were determined with a modified version of the Clinical and Laboratory Standards Institute broth microdilution assay, using a final inoculum concentration of 10^5 CFU/ml, as previously described (Scudiero O et al., Antimicrob Agents Chemother 2010; 54:2312-22; Scudiero O et al. Antimicrob Ag Chemother 2013; 57:1701-8).
as §1

Another experiment has as its system S. aureus ATCC 6538. The experiment is classed as cell-based, Staphylococcus aureus. How it is done: as §2, §3, §1
In another experiment the test system is MRSA strain 1. It counts as cell-based, Staphylococcus aureus. Here is the method:
as §2, §3, §1

The test system of a further experiment is MRSA strain 2. It counts as cell-based, Staphylococcus aureus. Here is the method: as §2, §3, §1
The subject of experiment [2] is P. aeruginosa MDR strain 1. It counts as cell-based, Pseudomonas aeruginosa. How it is done:
as §2, §3, §1

A further experiment deals with P. aeruginosa ATCC 27853. The experiment is classed as cell-based, Pseudomonas aeruginosa. How it is done:
as §2, §3, §1

The subject of experiment [3] is P. aeruginosa MDR strain 2. It counts as cell-based, Pseudomonas aeruginosa. Here is the method:
as §2, §3, §1

A further experiment deals with E. coli ESBL strain 1. It counts as cell-based, Escherichia coli. How it is done: as §2, §3, §1
The test system of another experiment is E. coli ATCC 13762. It counts as cell-based, Escherichia coli. How it is done: as §2, §3, §1
A further experiment deals with E. coli ESBL strain 2. It counts as cell-based, Escherichia coli. Here is the method: as §2, §3, §1
The subject of a further experiment is A. baumannii MDR 2. The experiment can be described thus: In vitro time-kill kinetics assay. It counts as cell-based, Acinetobacter baumannii complex. How it is done: as §1
In experiment [4] the test system is S. aureus ATCC 6538 (ATCC reference strain). The experiment can be described thus: In vitro time-kill kinetics assay. It counts as cell-based, Staphylococcus aureus. The note with it: peptide at MIC, after 2 hours' incubation. How it is done:
as §1

The subject of the next experiment is MRSA strains. The experiment can be described thus: In vitro time-kill kinetics assay. It counts as cell-based, Staphylococcus aureus. The note with it: all MRSA strains; peptide at MIC; after 2 hours' incubation, throughout observation period. How it is done:
as §1

With `CC[C@H](C)[C@H](NC(=O)[C@H](CCC(N)=O)NC(=O)[C@H](CCCNC(=N)N)NC(=O)[C@H](CCCNC(=N)N)NC(=O)[C@H](CCCCN)NC(=O)[C@@H]1CCCN1C(=O)[C@H](CC(C)C)NC(=O)[C@H](CS)NC(C)=O)C(=O)NCC(=O)N[C@@H](CCCCN)C(=O)N[C@@H](CO)C(=O)N[C@@H](CO)C(=O)N[C@H](C(=O)N[C@@H](CCCNC(=N)N)C(=O)NCC(=O)N[C@@H](CCCNC(=N)N)C(=O)N[C@@H](CCCCN)C(=O)N[C@@H](CO)C(=O)N[C@@H](CS)C(=O)N[C@@H](CCCCN)C(=O)N[C@@H](CCCCN)C(N)=O)[C@@H](C)O` [Reduced peptide γ2] (Ac-CLPKRRQIGKSSTRGRKSCKK-NH2), the “growth in time-kill assay” value (with ESBL strains of E. coli; in experiment [1]; in [4]; with MRSA strains) was “total reduction in growth” in each case. Further, the MBC against MRSA strain 3 is 4 µM (≈ 9.84 µg/mL); against S. aureus ATCC 6538, 1 to 2 µM; in the experiment on MRSA strain 1, 1 µM (≈ 2.46 µg/mL); against MRSA strain 2, 16 µM (≈ 39.3 µg/mL); in experiment [2], 64 µM (≈ 157 µg/mL); against P. aeruginosa ATCC 27853 it was 1 µM (≈ 2.46 µg/mL). Also, the MBC in experiment [3] is 1 µM (≈ 2.46 µg/mL); against E. coli ESBL strain 1 it was 2 µM (≈ 4.92 µg/mL); against E. coli ATCC 13762, 2 µM (≈ 4.92 µg/mL); in the experiment with E. coli ESBL strain 2, 16 µM (≈ 39.3 µg/mL). The minimum inhibitory concentration (MIC) in the experiment on MRSA strain 3 is 1 µM (≈ 2.46 µg/mL); against MRSA strain 1 it was 1 µM (≈ 2.46 µg/mL); in the experiment with MRSA strain 2 it was 4 to 8 µM; in experiment [3], 1 µM (≈ 2.46 µg/mL); in the experiment with E. coli ESBL strain 1 it was 2 µM (≈ 4.92 µg/mL); against E. coli ATCC 13762 it was 2 µM (≈ 4.92 µg/mL). The compound further yielded an MIC with E. coli ESBL strain 2 of 2 µM (≈ 4.92 µg/mL). Also, the “growth and viability in time-kill assay” value in the experiment on A. baumannii MDR 2 (after 2 hours' treatment) is “great reduction in growth and viability”; in the experiment on A. baumannii MDR 2 (longer observation times, even at 4×MIC), “slight recovery of growth and viability”.
